Data from patent US20040253206A1 (priority 1999, published 2004).
Like-named read-outs stand apart in the source and are kept apart here.

Tests used:
[1] = Storage stability of trifluoroacetate product fraction solutions (analytical HPLC); assay type: physicochemical
[2] = Hande 1998; cited from earlier work
[3] = test system: A121 ovarian carcinoma cell line; test: Tumor cell growth inhibition (SRB), A121; assay type: cell-based, human; details: 72-96 h, read-out: IC50 (±S.E.) A121
Text: (§1) HT-1080 and HT-1080/DR4 (MRP/LRP positive) fibrosarcoma cell lines (1,2) were obtained from Dr. Y. Rustum, Roswell Park Cancer Institute, Buffalo, N.Y. The A121 ovarian cell line (3) was provided by Dr. Kent Crickard, Buffalo General Hospital, Buffalo, N.Y. The MDA435/LCC6-WT and MDR^1 transfected cell lines (4) were provided by Dr. R. Clarke, Lombardi Cancer Center, Georgetown University School of Medicine. Cell lines were propagated as monolayers in RPMI-1640 containing 5% FCS, 5% NuSerum IV, 20 mM HEPES, 2 mM L-glutamine at 37° C. in a 5% CO2 humidified atmosphere.
(§2) Paclitaxel, which was used for comparison purposes and is not a compound of the present invention, was provided by Dr. I. Ojima, SUNY at Stonybrook. […] Paclitaxel was solubilized in 100% DMSO. […] For the second experiment (Experiment 2), less concentrated stock solutions (0.4 mM) of each compound were prepared in sterile H2O acidified with 10% 1 N HCl. […] All compounds were further diluted in RPMI-1640 containing 10 mM HEPES.
(§3) Assessment of cell growth inhibition was determined in 96 well microtiter plates according to the method of Skehan et al., “New Colorimetric Cytotoxicity Assay for Anticancer-Drug Screening, Articles 82(13):1107-1112 (1990). Briefly, cells were plated with 400-1800 cells/well in 96 well plates and incubated at 37° C. 15-18 hr prior to drug addition to allow for cell attachment. Each cell line was exposed to 12 concentrations of compound (a 6 log range), 5 replicate data points per compound concentration. […] Assays were terminated with 100 μl of ice-cold 50% TCA. After 1 hr at 4° C., plates were washed 5 times with tap water to remove TCA, low-molecular-weight metabolites and serum proteins. 50 μl of 0.4% sulforhodamine B (SRB) was added to each well. Following a five minute incubation at room temperature, plates were rinsed 5 times with 0.1% acetic acid and air dried. Bound dye was solubilized with 10 mM Tris Base (pH 10.5) for 5 min on a gyratory shaker. Optical density was measured at 570 nm.
(§4) Data were fit with the Sigmoid-Emax concentration-effect model (N. H. G. Holford and L. B. Scheiner, “Understanding the dose-effect relationship: Clinical applications of pharmacokinetic-pharmacodynamic models,” Clin. Pharmacokin. 6:429-453 (1981)) with nonlinear regression, weighted by the reciprocal of the square of the predicted response. The fitting software was developed at RPCI with Microsoft FORTRAN, and uses Marquardt algorithm (D. W. Marquardt, “An algorithm for least squares estimation of nonlinear parameters,” J. Soc. Ind. Appl. Math. 11:431-441) as adapted by Nash (J. C. Nash, Compact Numerical Method for Computers: Linear Algebra and Function Minimization, New York: John Wiley & Sons, 1979) for the nonlinear regression.

[4] = test system: HT-1080 fibrosarcoma cell line; test: Tumor cell growth inhibition (SRB), HT-1080; assay type: cell-based, human; details: 72-96 h, read-out: IC50 (±S.E.) HT-1080
Text: as §1, §2, §3, §4

[5] = test system: LCC6-WT breast carcinoma cell line; test: Tumor cell growth inhibition (SRB), LCC6-WT; assay type: cell-based, human; details: read-out: IC50 (±S.E.) LCC6-WT
Text: as §1, §2, §3, §4

[6] = test system: LCC6-MDR1 PgP transfected breast carcinoma cell line; test: cells; details: for Resistance ratio (IC50 resistant cell line/IC50 parental line) LCC6-MDR1: LCC6-MDR1 versus LCC6-WT, range over experiments
Text: as §1, §2, §3, §4

[7] = test system: HT-1080-DR4 doxorubicin selected MDR (MRP/LRP phenotype) fibrosarcoma cell line; test: Tumor cell growth inhibition (SRB), HT-1080-DR4; assay type: cell-based, human; details: for Resistance ratio (IC50 resistant cell line/IC50 parental line) HT1080/DR4: HT1080/DR4 versus HT-1080, range over experiments; for IC50: 72-96 h, read-out: IC50 (±S.E.) HT-1080-DR4
Text: as §1, §2, §3, §4

[8] = Chemical hydrolysis in wet acetonitrile; assay type: physicochemical; details: ca. 1 mg/mL in wet acetonitrile, 26 days at room temperature
Protocol: A sample of solid acetate (Compound 4) was dissolved (ca. 1 mg/mL) in wet acetonitrile (nonanhydrous due to exposure to humid air).

[9] = Experiment 1, TX-001/TX-002 from 4.0 mM stocks
[10] = Experiment 2, TX-001/TX-002 from 0.4 mM stocks
[11] = 4.0 mM stock solutions that had been stored at 4° C. for 7 days
[12] = Experiment 1, TX-001/TX-002 from 4.0 mM stocks, 72-96 h
[13] = Experiment 2, TX-001/TX-002 from 0.4 mM stocks, 72-96 h

| Molecule | Resistance ratio (IC50 resistant cell line/IC50 parental line) LCC6-MDR1 [6] | Resistance ratio (IC50 resistant cell line/IC50 parental line) HT1080/DR4 [7] | IC50 [3, 9] | IC50 [3, 10] | IC50 [4, 9] | IC50 [4, 10] | IC50 [5, 11] | IC50 [5, 12] | IC50 [5, 13] | IC50 [7, 9] | IC50 [7, 10] | other results |
| --- | --- | --- | --- | --- | --- | --- | --- | --- | --- | --- | --- | --- |
| 2′-Succinamidyl-PEG2-amine-paclitaxel trifluoroacetate [Compound 3] | – | – | – | – | – | – | – | – | – | – | – | average purity of product fraction solutions after storage ([1]; after storage at 8° C. for 16 days): 97.4%; average purity of product fraction solutions, initial ([1]; preparative HPLC fraction solutions, before storage): 98.8% |
| COc1cc([C@@H]2c3cc4c(cc3[C@@H](O[C@@H]3O[C@@H]5CO[C@@H](C)O[C@H]5[C@H](O)[C@H]3O)[C@H]3COC(=O)[C@H]23)OCO4)cc(OC)c1O [Etoposide] | – | – | – | – | – | – | – | – | – | – | – | solubility in water [2]: nearly insoluble in water |
| CC(=O)O[C@H]1C(=O)[C@@]2(C)[C@H]([C@H](OC(=O)c3ccccc3)[C@]3(O)C[C@H](OC(=O)[C@H](O)[C@@H](NC(=O)c4ccccc4)c4ccccc4)C(C)=C1C3(C)C)[C@]1(OC(C)=O)CO[C@@H]1C[C@@H]2O [Paclitaxel, reference compound] | 65-92 fold | 1.1-1.4 fold | – | – | – | – | – | – | – | – | – | IC50 ([3]; Homo sapiens, A121, Experiment 1, TX-001/TX-002 from 4.0 mM stocks): 11 ± 0.5 nM; IC50 ([3]; Homo sapiens, A121, Experiment 2, TX-001/TX-002 from 0.4 mM stocks): 14 ± 1.3 nM; IC50 ([4]; Homo sapiens, HT-1080, Experiment 1, TX-001/TX-002 from 4.0 mM stocks): 4.5 ± 0.2 nM; IC50 ([4]; Homo sapiens, HT-1080, Experiment 2, TX-001/TX-002 from 0.4 mM stocks): 5.7 ± 0.3 nM; IC50 ([5]; Homo sapiens, Breast carcinoma cell, Experiment 1, TX-001/TX-002 from 4.0 mM stocks, 72-96 h): 4.7 ± 0.5 nM; IC50 ([5]; Homo sapiens, Breast carcinoma cell, Experiment 2, TX-001/TX-002 from 0.4 mM stocks, 72-96 h): 6 ± 2 nM; IC50 ([6]; Homo sapiens, LCC6MDR, read-out: IC50 (±S.E.) LCC6-MDR, Experiment 1, TX-001/TX-002 from 4.0 mM stocks, 72-96 h): 434 ± 28 nM; IC50 ([6]; Homo sapiens, LCC6MDR, read-out: IC50 (±S.E.) LCC6-MDR, Experiment 2, TX-001/TX-002 from 0.4 mM stocks, 72-96 h): 391 ± 52 nM; IC50 ([7]; Homo sapiens, Experiment 1, TX-001/TX-002 from 4.0 mM stocks): 4.9 ± 0.4 nM; IC50 ([7]; Homo sapiens, Experiment 2, TX-001/TX-002 from 0.4 mM stocks): 7.7 ± 0.1 nM |
| CC(=O)O.CC(=O)OC1C(=O)C2(C)C(O)CC3OCC3(OC(C)=O)C2C(OC(=O)c2ccccc2)C2(O)CC(OC(=O)C(OC(=O)CCC(=O)NCCOCCOCCN)C(NC(=O)c3ccccc3)c3ccccc3)C(C)=C1C2(C)C (stereo not drawn) [TX-001, 2′-Succinamidyl-PEG2-amine-paclitaxel Acetate] | – | – | 13 ± 0.5 nM | 37 ± 1.2 nM | 4.5 ± 0.4 nM | 19 ± 0.7 nM | 2.7 nM | 4.9 ± 0.5 nM | 13 ± 0.5 nM | 8.9 ± 0.4 nM | 36 ± 1.5 nM | chemical hydrolysis behavior [8]: converted quantitatively into paclitaxel |
| CC(=O)O.CC(=O)OC1C(=O)C2(C)C(O)CC3OCC3(OC(C)=O)C2C(OC(=O)c2ccccc2)C2(O)CC(OC(=O)C(OC(=O)CCCC(=O)NCCOCCOCCN)C(NC(=O)c3ccccc3)c3ccccc3)C(C)=C1C2(C)C (stereo not drawn) [TX-002, 2′-Glutaramidyl-PEG2-amine-paclitaxel acetate] | 47-60 fold | 1.1-1.5 fold | 48 ± 3 nM | 171 ± 8.8 nM | 22 ± 0.9 nM | 49 ± 6.5 nM | 16 nM | 18 ± 1.1 nM | 38 ± 4.6 nM | 32 ± 1.5 nM | 54 ± 5.3 nM | IC50 ([6]; read-out: IC50 (±S.E.) LCC6-MDR, 4.0 mM stock solutions that had been stored at 4° C. for 7 days): 879 nM; IC50 ([6]; read-out: IC50 (±S.E.) LCC6-MDR, Experiment 1, TX-001/TX-002 from 4.0 mM stocks, 72-96 h): 1070 ± 45 nM; IC50 ([6]; read-out: IC50 (±S.E.) LCC6-MDR, Experiment 2, TX-001/TX-002 from 0.4 mM stocks, 72-96 h): 1800 ± 168 nM |
